Laboratory results taken from patent publication US8101761B2, “(E)-N-{3-[1-(8-fluoro-11H-10-OXA-1-AZA-dibenzo [A,D] cyclohepten-5ylidene)-propyl]-phenyl}-methanesulfonamide as glucocorticoid receptor modulator for the treatment of rheumatoid arthritis” (Eli Lilly and Company, priority 2008, dated 2012).

Key:
[1] = molecular target: T1, human androgen receptor (AR) (Homo sapiens, UniProt P10275); assay: Nuclear hormone receptor functional modulation assay (probasin ARE-luciferase reporter, HEK293), AR; type: cell-based; conditions: agonist mode, mean of n=4 or 5
T1 construct: expressed in transfected cells; host or cells: HEK293, transient transfection, CMV promoter plasmid
T1 sequence (P10275 1-920): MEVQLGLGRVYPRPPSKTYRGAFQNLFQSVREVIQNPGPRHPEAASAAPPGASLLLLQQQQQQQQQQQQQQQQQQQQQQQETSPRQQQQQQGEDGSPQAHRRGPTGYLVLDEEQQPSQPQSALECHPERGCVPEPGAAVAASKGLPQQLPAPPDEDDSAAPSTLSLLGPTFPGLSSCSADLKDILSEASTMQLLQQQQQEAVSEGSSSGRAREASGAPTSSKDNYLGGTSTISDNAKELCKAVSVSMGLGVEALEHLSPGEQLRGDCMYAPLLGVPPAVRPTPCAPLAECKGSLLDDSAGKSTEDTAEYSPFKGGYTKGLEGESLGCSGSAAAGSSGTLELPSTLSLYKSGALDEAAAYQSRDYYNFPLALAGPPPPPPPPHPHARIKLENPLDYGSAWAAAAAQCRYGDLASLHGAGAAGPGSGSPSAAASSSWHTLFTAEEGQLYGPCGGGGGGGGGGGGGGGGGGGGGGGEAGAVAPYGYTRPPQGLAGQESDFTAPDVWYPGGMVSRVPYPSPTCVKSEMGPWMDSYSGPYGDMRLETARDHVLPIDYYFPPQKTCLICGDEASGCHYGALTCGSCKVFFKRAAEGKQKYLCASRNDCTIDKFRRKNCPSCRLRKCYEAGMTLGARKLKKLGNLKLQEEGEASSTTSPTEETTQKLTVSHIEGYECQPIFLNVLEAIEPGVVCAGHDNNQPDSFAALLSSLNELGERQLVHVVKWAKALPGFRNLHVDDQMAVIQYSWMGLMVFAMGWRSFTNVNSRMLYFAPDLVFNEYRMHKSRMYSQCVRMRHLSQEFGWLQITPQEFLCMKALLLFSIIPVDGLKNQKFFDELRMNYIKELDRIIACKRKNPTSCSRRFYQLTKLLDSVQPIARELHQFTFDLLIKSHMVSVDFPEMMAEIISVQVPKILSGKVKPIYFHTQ
Excerpt: (§1) The solvents, reagents, and ligands employed in the functional assay are readily available from commercial sources, or can be prepared by one of ordinary skill in the art.
(§2) Human embryonic kidney HEK293 cells are transfected with steroid hormone receptor and reporter gene plasmids using Fugene™ transfection reagent. Briefly, the reporter plasmid containing two copies of probasin ARE and TK(thymidine kinase) promoter upstream of the luciferase reporter cDNA, is transfected into HEK293 cells with a plasmid constitutively expressing human androgen receptor (AR) using viral CMV(cytomegalovirus) promoter. The reporter plasmid containing two copies of GRE and TK promoter upstream of the luciferase reporter cDNA is transfected with a plasmid constitutively expressing either human glucocorticoid receptor (GR), human mineralocorticoid receptor (MR), or human progesterone receptor (PR) using viral CMV promoter. […] After 24-hours incubation with test compounds, cells are lysed and luciferase activity is determined using standard techniques.
(§3) Data are fitted to a four parameter-fit logistic curve fit to determine EC50 values. […] IC50 values may be determined similarly using antagonist mode assay data. Percent inhibitions may also be determined relative to the response in the presence of agonist alone, as described above.

[2] = molecular target: T2, human progesterone receptor (PR) (Homo sapiens, UniProt P06401); assay: Nuclear hormone receptor functional modulation assay (GRE-luciferase reporter, HEK293), PR; type: cell-based; conditions: agonist mode, mean of n=4 or 5
T2 construct: expressed in transfected cells; host or cells: HEK293, transient transfection, CMV promoter plasmid
T2 sequence (P06401 1-933): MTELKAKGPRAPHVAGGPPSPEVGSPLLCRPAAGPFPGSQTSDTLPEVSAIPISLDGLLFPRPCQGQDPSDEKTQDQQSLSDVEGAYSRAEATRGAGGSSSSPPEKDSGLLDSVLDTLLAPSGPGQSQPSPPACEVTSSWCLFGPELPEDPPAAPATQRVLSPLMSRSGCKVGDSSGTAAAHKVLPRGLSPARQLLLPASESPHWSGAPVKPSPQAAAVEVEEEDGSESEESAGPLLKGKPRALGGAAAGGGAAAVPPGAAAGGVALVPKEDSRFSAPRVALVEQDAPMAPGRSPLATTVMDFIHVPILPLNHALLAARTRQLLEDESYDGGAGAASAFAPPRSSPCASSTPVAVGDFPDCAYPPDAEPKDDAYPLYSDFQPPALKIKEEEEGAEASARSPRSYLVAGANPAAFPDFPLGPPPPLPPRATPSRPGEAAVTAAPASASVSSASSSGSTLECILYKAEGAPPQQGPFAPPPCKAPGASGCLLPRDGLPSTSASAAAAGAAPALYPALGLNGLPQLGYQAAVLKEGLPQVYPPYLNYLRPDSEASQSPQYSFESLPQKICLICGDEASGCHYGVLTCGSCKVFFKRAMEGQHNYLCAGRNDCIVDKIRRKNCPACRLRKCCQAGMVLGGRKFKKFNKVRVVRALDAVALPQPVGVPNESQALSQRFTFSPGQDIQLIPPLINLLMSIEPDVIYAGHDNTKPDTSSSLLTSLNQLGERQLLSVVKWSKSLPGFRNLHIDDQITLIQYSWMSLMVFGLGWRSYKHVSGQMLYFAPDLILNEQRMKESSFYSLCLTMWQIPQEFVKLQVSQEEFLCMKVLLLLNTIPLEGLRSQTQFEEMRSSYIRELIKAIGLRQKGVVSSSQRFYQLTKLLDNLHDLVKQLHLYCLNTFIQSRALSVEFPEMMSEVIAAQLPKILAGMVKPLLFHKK
Excerpt: as §1, §2, §3

efficacy in activating transcription, AR ([1]; relative to 100 nM methyltrienolone): about 4.4%
EC50 ([1]; read-out: EC50 in activating transcription, AR): > 10 µM
efficacy in activating transcription, PR ([2]; relative to 30 nM promegestone): about 54%
EC50 ([2]; read-out: EC50 in activating transcription, PR): > 10 µM
SMILES: CC/C(=C1\c2ccc(F)cc2OCc2ncccc21)c1cccc(NS(C)(=O)=O)c1 [Compound (I), (E)-N-{3-[1-(8-Fluoro-11H-10-oxa-1-aza-dibenzo[a,d]cyclohepten-5-ylidene)-propyl]-phenyl}-methanesulfonamide]
